{"source": "patent EP0173754A1", "about": "“7-THIAPROSTAGLANDIN E 1?'S AND PROCESS FOR THEIR PREPARATION” (TEIJIN LIMITED, priority 1984, dated 1985)", "key": {"[1]": {"system": "Ethanol Ulcer", "assay": "Effect against ethanol ulcer in rats", "format": "in vivo", "details": "Rattus norvegicus, po, 1 h; P.O; SD type male rats; 75% ethanol 1 ml/kg orally 30 minutes after sample; ulcer length one hour after ethanol; read-out: Antiulcerative effect ED50", "experimental": "SD type male rats (7 weeks old and body weight of 220 g) were abstained from food for 24 hours except giving water and then subjected to experiments.\nThe sample compound to be tested was dissolved in a phosphoric acid buffer (pH 7.4) containing 0.9% NaCl and the solution was orally administered to the rats. 30 minutes after the administration, 75% ethanol was orally administered to the rats at a dose of 1 ml/kg. One hour after the administration of the ethanol, the rats were killed and the ulcer formation in the stomach was examined by determining the length of the ulcer formation portion under a stereomicroscope. From this measurement, the inhibition of ulcer formation by the sample compound was calculated to determine the ED50 value."}, "[2]": {"system": "blood platelet aggregation", "assay": "In vitro blood platelet aggregation inhibition (ADP-induced, rabbit PRP)", "format": "cell-based, rabbits", "details": "Oryctolagus cuniculus, 10 uM ADP (final), preincubated 37°C 2 minutes, read-out: Anti-platelet aggregation effect IC50", "source_text": "The in vitro blood platelet aggregation inhibition effect of the sample compounds to be tested was examined by using rabbits. That is, blood was collected from the ear vein of native Japanese white male domestic rabbits weighing 2.5 to 3.5 kg. The collected blood was 9 parts by volume per 1 part by volume of a 3.8% sodium citrate solution. The blood was centrifuged at 1000 r.p.m. for 10 mintues. The upper layer portion was separated as PRP (rich in platelet blood plasma). The lower layer portion was further centrifuged at 2800 r.p.m. for 10 mintues to divide it into two layers. The upper layer portion was separated as PPP (poor in platelet blood plasma). The number of the platelet was diluted with PPP to 6 to […]. […]\nWhen the activity of the sample compounds was determined, the ethanol solution was diluted with a phosphoric acid buffer (PH 7.4). The ethanol solution diluted with the buffer was left to stand at a temperature of 0°C for 4 hours, after which the activity of the sample compounds was determined in the same manner.\nThe platelet aggregation inhibition was calculated by the following formula: [formula] • T : the transmittance of the system to which the phosphoric acid buffer is added • T: the transmittance of the system to which the sample compounds are added […]"}, "[3]": {"system": "ulcer formation induced by indomethacin", "assay": "Antiulcerative effect: inhibition of indomethacin-induced ulcer formation in rats", "format": "in vivo", "details": "Rattus norvegicus, po; P.O; Wister male rats; indomethacin 20 mg/kg orally 30 minutes after sample; ulcer length 5 hours after indomethacin", "experimental": "The inhibiting effect on ulcer formation induced by indomethacin was examined by using rats. Wister male rats (7 weeks old and body weight of 220 g) were abstained from food for 24 hours except giving water and then subjected to experiments.\nThe sample compounds to be tested were dissolved in a phosphoric acid buffer (pH 7.4) containing 0.9% NaCl and the solution was orally administered to the rats. 30 minutes after the administration, indomethacin was orally administered to the rats at a dose of 20 mg/kg. 5 hours after the administration of the indomethacin, the rats were kileld and the ulcer formation in the stomach was examined by determining the length of the ulcer formation portion under a stereomicroscope. From this measurement, the inhibition of ulcer formation by the sample compounds were calculated to determine the ED50 values."}}}
{"smiles": "CCCCC(O)C/C=C/[C@H]1[C@H](O)CC(=O)[C@@H]1SCCCCCC(=O)OC", "note": "(stereo partly drawn) [Compound of this invention]", "values": [{"measurement": "ED50", "setting": "[1]", "result": 0.018, "unit": "mg/kg"}, {"measurement": "IC50", "setting": "[2]", "result": 17, "unit": "µg/mL"}, {"measurement": "ED50", "setting": "[3]", "result": 0.01, "unit": "mg/kg"}]}
